# Values of other authors as cited in patent US11331258B2, “Method for dyeing keratinous material, comprising the use of an organosilicon compound, an oligoalkylsiloxane and a dyeing compound” (Henkel AG & Co. KGaA, priority 2019, dated 2022).
# Where two headings read alike, the source gives them in different places.
SMILES,solubility in water (25° C.),solubility in water (at about 25° C.)
CCN(Cc1cccc(S(=O)(=O)[O-])c1)c1ccc(C(=C2C=CC(=[N+](CC)Cc3cccc(S(=O)(=O)[O-])c3)C=C2)c2ccccc2S(=O)(=O)[O-])cc1.[Na+].[Na+] [Acid Blue 9],more than 20 % by weight,
"Nc1cc(S(=O)(=O)[O-])cc2cc(S(=O)(=O)[O-])c(N=Nc3ccccc3)c(O)c12.[Na+].[Na+] [Acid Red 33, diantrium salt of 5-amino-4-hydroxy-3-(phenylazo)-naphthalene-2,7-disulphonate]",about 2.5 g/L,
"O=S(=O)([O-])c1ccc(N=Nc2c(O)ccc3ccccc23)cc1.[Na+] [Acid Orange 7, sodium salt of 4-[(2-hydroxy-1-naphthyl)azo]benzene sulphonate]",more than 7 g/L,
"O=C([O-])C1=NN(c2ccc(S(=O)(=O)[O-])cc2)C(=O)C1N=Nc1ccc(S(=O)(=O)[O-])cc1.[Na+].[Na+].[Na+] (stereo not shown) [Acid Yellow 23, trisodium salt of 4,5-dihydro-5-oxo-1-(4-sulfophenyl)-4-((4-sulfophenyl)azo)-1H-pyrazole-3-carboxylic acid]",,highly soluble
